ChEMBL document CHEMBL3745641, “Discovery and Structure-Guided Optimization of Diarylmethanesulfonamide Disrupters of Glucokinase-Glucokinase Regulatory Protein (GK-GKRP) Binding: Strategic Use of a N → S (nN → σ*S-X) Interaction for Conformational Constraint” (J Med Chem, 2015)

Tests used:
[1] = Intrinsic clearance in rat liver microsomes after 30 mins; type: ADME; settings: read-out: CLH
[2] = target: T1, Glucokinase regulatory protein (Mus musculus, UniProt Q91X44); assay: Inhibition of glucokinase-GKRP binding interaction in mouse hepatocytes assessed as induction of glucokinase translocation; type: cell-based, Hepatocyte
T1 sequence (Q91X44 whole entry): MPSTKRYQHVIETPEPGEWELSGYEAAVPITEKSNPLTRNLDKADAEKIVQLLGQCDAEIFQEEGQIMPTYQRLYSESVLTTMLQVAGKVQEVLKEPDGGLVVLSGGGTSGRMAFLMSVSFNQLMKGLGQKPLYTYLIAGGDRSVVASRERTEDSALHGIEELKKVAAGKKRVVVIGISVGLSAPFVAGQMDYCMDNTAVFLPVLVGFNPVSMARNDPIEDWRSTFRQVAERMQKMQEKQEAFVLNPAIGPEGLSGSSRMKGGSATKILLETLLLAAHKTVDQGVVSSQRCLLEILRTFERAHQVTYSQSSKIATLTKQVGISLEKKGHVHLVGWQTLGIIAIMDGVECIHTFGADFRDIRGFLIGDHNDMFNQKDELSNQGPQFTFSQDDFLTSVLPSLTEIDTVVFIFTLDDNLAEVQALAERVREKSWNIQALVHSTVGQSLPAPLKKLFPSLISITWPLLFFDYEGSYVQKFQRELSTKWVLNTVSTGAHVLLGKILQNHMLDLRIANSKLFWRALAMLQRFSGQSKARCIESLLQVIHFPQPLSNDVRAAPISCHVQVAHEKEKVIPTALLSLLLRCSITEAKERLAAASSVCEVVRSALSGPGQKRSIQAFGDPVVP

[3] = Apparent permeability from apical to basolateral side in pig LLC-PK1 cells; type: ADME, cell-based, Sus scrofa
Hexokinase-4 [4] = target: T2, Hexokinase-4 (Homo sapiens, UniProt P35557); assay: Binding affinity to human glucokinase by surface plasmon resonance analysis
T2 sequence (P35557 whole entry): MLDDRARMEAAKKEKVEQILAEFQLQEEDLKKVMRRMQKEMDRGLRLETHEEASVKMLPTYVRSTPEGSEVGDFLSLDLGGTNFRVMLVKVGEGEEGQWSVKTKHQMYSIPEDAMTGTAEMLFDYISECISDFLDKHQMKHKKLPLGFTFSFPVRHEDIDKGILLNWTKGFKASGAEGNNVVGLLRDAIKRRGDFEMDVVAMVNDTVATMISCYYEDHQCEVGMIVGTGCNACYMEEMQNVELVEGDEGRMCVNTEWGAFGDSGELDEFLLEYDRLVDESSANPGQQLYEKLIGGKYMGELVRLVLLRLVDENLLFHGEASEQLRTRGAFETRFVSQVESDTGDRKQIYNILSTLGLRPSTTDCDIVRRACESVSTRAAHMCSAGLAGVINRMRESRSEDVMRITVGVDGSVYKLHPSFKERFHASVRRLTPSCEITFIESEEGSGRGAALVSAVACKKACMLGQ

[5] = Tmax in Sprague-Dawley rat at 10 mg/kg, po; type: ADME, organism-based; settings: in vivo
Blood = assay: Drug uptake in po dosed db/db mouse blood administered qd measured after 6 hrs; type: ADME, organism-based; settings: in vivo
[6] = Half life in Sprague-Dawley rat at 2 mg/kg, iv; type: ADME, organism-based; settings: in vivo
[7] = Oral bioavailability in Sprague-Dawley rat at 10 mg/kg; type: ADME, organism-based; settings: in vivo
[8] = Plasma protein binding in rat by rapid equilibrium dialysis method; type: ADME, cell-free; settings: read-out: PPB
[9] = Drug uptake in db/db mouse blood at 100 mg/kg, po qd after 6 hrs; type: ADME, organism-based; settings: whole blood, read-out: Drug uptake
[10] = Plasma concentration in Sprague-Dawley rat at 10 mg/kg, po qd at 24 hrs; type: ADME, organism-based
[11] = Volume of distribution at steady state in Sprague-Dawley rat at 2 mg/kg, iv; type: ADME, organism-based; settings: in vivo, read-out: Vdss
[12] = Clearance in Sprague-Dawley rat at 2 mg/kg, iv; type: ADME, organism-based; settings: in vivo
[13] = Drug uptake in db/db mouse blood at 30 mg/kg, po qd after 6 hrs; type: ADME, organism-based; settings: whole blood, read-out: Drug uptake
Plasma = assay: Drug uptake in po dosed Sprague-Dawley rat plasma administered qd measured after 6 hrs; type: ADME, organism-based; settings: in vivo
[14] = Drug uptake in db/db mouse blood at 10 mg/kg, po qd after 6 hrs; type: ADME, organism-based; settings: whole blood, read-out: Drug uptake
[15] = Cmax in Sprague-Dawley rat at 10 mg/kg, po; type: ADME, organism-based; parameters: dose 10 mg/kg, route oral; settings: in vivo
[16] = Plasma concentration in Sprague-Dawley rat at 100 mg/kg, po qd at 24 hrs; type: ADME, organism-based
[17] = Plasma concentration in Sprague-Dawley rat at 10 mg/kg, po qd after 6 hrs; type: ADME, organism-based
[18] = Plasma concentration in Sprague-Dawley rat at 100 mg/kg, po qd after 6 hrs; type: ADME, organism-based
Mus musculus [19] = assay: Antidiabetic activity in db/db mouse assessed as reduction in blood glucose level at 100 mg/kg, po qd after 3 hrs relative to control; type: functional; parameters: scale not given: the % may be the effect or the level left
[20] = Drug uptake in db/db mouse blood at 100 mg/kg, po qd after 3 hrs; type: ADME, organism-based; settings: whole blood, read-out: Drug uptake
Mus musculus [21] = assay: Antidiabetic activity in db/db mouse assessed as reduction in blood glucose level at 100 mg/kg, po qd after 6 hrs relative to control; type: functional; parameters: scale not given: the % may be the effect or the level left
Hexokinase-4 [22] = target: T2, Hexokinase-4; assay: Effect on human glucokinase activity after 60 mins by luciferase-based luminescence assay in absence of human GKRP

microsomal CLint [1] [µL/min/mg]	EC50 [2] [µM]	Papp A→B [3] [×10⁻⁶ cm/s]	Structure (SMILES)	further results
> 399	> 12.5	–	O=S(=O)(N[C@@H](c1cc2ccccc2s1)c1ccccc1Cl)c1ccc2c(c1)OCC(F)(F)CO2	–
28	–	7.8	CC(C)(O)c1ccnc(-c2cccc3cc([C@H](NS(=O)(=O)C4CC4)c4nc(N)c(F)cc4Cl)sc23)c1	–
> 399	> 12.5	–	O=S(=O)(N[C@@H](c1cc2ccccc2s1)c1ccccc1Cl)C1CC1	–
130	–	11	CC(C)(O)c1ccnc(-c2cccc3cc([C@H](NS(=O)(=O)C4CC4)c4nc(N)ccc4Cl)sc23)c1	–
> 399	–	–	O=S(=O)(N[C@@H](c1cc2ccccc2s1)c1ccccc1Cl)c1ccc2c(c1)OCCCO2	Kd (Hexokinase-4 [4]): > 10 µM
28	–	19	CC(C)(O)c1ccnc(-c2cccc3cc([C@H](NS(=O)(=O)C4CC4)c4nc(N)ncc4Cl)sc23)c1	Tmax [5]: 4.7 h; Drug uptake (Blood): Dose-dependent effect; half-life [6]: 3 h; bioavailability [7]: 25%; fraction unbound [8]: 0.01; concentration at 6 h [9]: 19000 nM; concentration at 24 h [10]: 200 nM; Vd [11]: 1.3 L/kg; clearance [12]: 4.67 mL/min/kg; concentration at 6 h [13]: 4100 nM; Drug uptake (Plasma): Dose-dependent effect; concentration at 6 h [14]: 1200 nM; Cmax [15]: 1900 nM; concentration at 24 h [16]: 210 nM; concentration at 6 h [17]: 2900 nM; concentration at 6 h [18]: 23000 nM
> 399	> 12.5	–	COc1ccc(S(=O)(=O)N[C@@H](c2cc3ccccc3s2)c2ccccc2Cl)cc1	–
26	–	16	CC(C)(O)c1ccnc(-c2cccc3cc([C@H](NS(=O)(=O)C4CC4)c4c(Cl)cnc(N)c4F)sc23)c1	Tmax [5]: 3.3 h; half-life [6]: 3.1 h; bioavailability [7]: 46%; fraction unbound [8]: 0.01; concentration at 6 h [9]: 21000 nM; concentration at 24 h [10]: 220 nM; Vd [11]: 1.6 L/kg; clearance [12]: 6 mL/min/kg; Drug uptake (Plasma): Dose-dependent effect; Cmax [15]: 2800 nM; concentration at 24 h [16]: 6300 nM; Activity (Mus musculus [19]): 45%; concentration at 3 h [20]: 25000 nM; Activity (Mus musculus [21]): 33%
> 399	–	–	O=S(=O)(N[C@H](c1ccccc1)c1cc2ccccc2o1)c1ccc2c(c1)OCCCO2	–
> 399	4.1	–	O=S(=O)(N[C@@H](c1cc2ccccc2s1)c1ccccc1Cl)c1ccc2c(c1)OCC(F)CO2 (mixture of isomers)	–
67	–	19	CC(C)(O)c1ccnc(-c2cccc3cc([C@H](NS(=O)(=O)C4CC4)c4cc(N)ncc4Cl)sc23)c1	–

Second part, the compound before the results:

Structure (SMILES)	microsomal CLint [1] [µL/min/mg]	EC50 [2] [µM]	Papp A→B [3] [×10⁻⁶ cm/s]	further results
C[C@@](O)(c1cccc(-c2cccc3cc([C@H](NS(=O)(=O)C4CC4)c4ccccc4Cl)sc23)c1)C(F)(F)F	< 14	–	–	–
O=S(=O)(N[C@@H](c1cc2ccccc2s1)c1ccccc1Cl)c1ccc2c(c1)OCCO2	> 399	> 12.5	–	–
CC(C)(O)c1ccnc(-c2cccc3cc([C@H](NS(=O)(=O)C4CC4)c4ccccc4Cl)sc23)c1	34	–	7.5	–
C[C@](O)(c1ccnc(-c2cccc3cc([C@H](NS(=O)(=O)C4CC4)c4ccccc4Cl)sc23)c1)C(F)(F)F	< 14	–	2.4	–
O=S(=O)(N[C@@H](c1cc2ccccc2s1)c1ccccc1Cl)c1ccccc1	> 399	> 12.5	–	–
C[C@](O)(c1cccc(-c2cccc3cc([C@H](NS(=O)(=O)C4CC4)c4ccccc4Cl)sc23)c1)C(F)(F)F	< 14	–	–	–
O=S(=O)(N[C@@H](c1cc2ccccc2s1)c1ccccc1Cl)c1ccc2c(c1)OCO2	> 399	> 12.5	–	–
O=S(=O)(N[C@@H](c1cc2ccccc2o1)c1ccccc1Cl)c1ccc2c(c1)OCCCO2	> 399	6.3	–	–
O=S(=O)(N[C@@H](c1nc2cccnc2s1)c1ccccc1Cl)c1ccc2c(c1)OCCCO2	> 399	3.3	–	–
CC(C)(O)c1ccnc(-c2cccc3cc([C@H](NS(=O)(=O)C4CC4)c4c(F)cccc4Cl)sc23)c1	18	–	9.5	–
C[C@@](O)(c1ccnc(-c2cccc3cc([C@H](NS(=O)(=O)C4CC4)c4ccccc4Cl)sc23)c1)C(F)(F)F	< 14	–	< 1.8	–
O=S(=O)(NC(c1ccccc1)c1cc2ccccc2o1)c1ccc2c(c1)OCCCO2 (stereo not given)	–	–	–	EC50 (Hexokinase-4 [22]): > 100 µM; Kd (Hexokinase-4 [4]): > 20 µM
O=S(=O)(N[C@@H](c1cc2ccccc2s1)c1ccccc1Cl)c1ccc2c(c1)OCC(O)CO2 (mixture of isomers)	304	4.3	–	–
